{"source": "patent US20220347297A1", "about": "“METHODS OF PERMITTING A SUBJECT TO RECEIVE MULTIPLE DOSES OF RECOMBINANT ADENO-ASSOCIATED VIRUS” (University of Florida Research Foundation, Incorporated, priority 2014, published 2022)", "key": {"[1]": {"system": "B-cells (CD20), CD3 positive lymphocytes", "test": "Enumeration of B- and T-lymphocyte subpopulations in peripheral blood by flow cytometry", "format": "in vivo, human", "details": "375 mg/m^2 weekly for 3 weeks, then at 12 weeks intervals", "method": "Enumeration of B- and T-lymphocyte subpopulations in peripheral blood was done by flow cytometry using monoclonal Abs to CD19 or CD20 for B cells and monoclonal Abs to CD3, CD4, and CD8 for T cells. Sirolimus trough levels, IgG, CD3, CD4, CD8, CD19, CD20, N-terminal pro-brain natriuretic peptide, creatine kinase, creatine kinase-MB, C-reactive protein, platelets, alkaline phosphatase, gamma-glutamyl transferase, aspartate aminotransferase, and alanine aminotransferase were measured at regular intervals."}, "[2]": {"system": "anti-rAAV NAbs / GAA antibody responses", "details": "cited from earlier work"}, "[3]": {"system": "AAV1 capsid proteins", "test": "ELISA for circulating antibodies to AAV1 capsid in serum of Pompe subjects", "details": "Pompe patient, rituximab with sirolimus prior to rAAV1-GAA", "method": "Serum samples were assayed by ELISA for circulating antibodies to the AAV1 capsid proteins.\nSerum samples were assayed by enzyme linked immunosorbent assay (ELISA) for circulating antibodies to the intact AAV1 capsid and hGAA protein 21, 46. Anti-AAV1 and anti-hGAA ASR and ELISPOT assay were performed as previously described on isolated peripheral blood mononuclear cells (ref. 47)."}}, "note": "“Also recorded” adds a separate entry of the source."}
{"substance": "Rituximab: monoclonal antibody that induces B-cell depletion by binding the CD20 protein found on the surface of B-cells", "values": [{"measurement": "CD20 counts (B-cells)", "setting": "[1]", "result": "complete depletion"}, {"measurement": "GAA antibody responses to ERT", "setting": "[2]; CRIM-negative infants with early-onset Pompe disease, Rituximab plus Sirolimus before initiation of ERT (Elder et al.)", "result": "able to block GAA antibody responses"}, {"measurement": "existing anti-rAAV NAbs", "setting": "[2]; humans receiving rituximab for rheumatoid arthritis (ref. 33) and non-human primates", "result": "successful in reduction"}, {"measurement": "immune response to rAAV vector (capsid and transgene) after B-cell depletion prior to vector exposure", "setting": "[3]", "result": "immune non-responsiveness; also recorded: nonresponsiveness to both capsid and transgene"}]}
